Reference: ChEMBL document CHEMBL3745716, “Synthesis, pharmacological assessment, molecular modeling and in silico studies of fused tricyclic coumarin derivatives as a new family of multifunctional anti-Alzheimer agents” (Eur J Med Chem, 2016)
Activity calls are given as the source filed them. The calls are words filed in the database; no cut-off is given here.

Assays:
[1] = test system: SK-N-SH; assay: Neuroprotective activity against H2O2-induced cell death in human SK-N-SH cells assessed as cell viability preincubated for 3 hrs followed by H202 challenge after 24 hrs by MTT assay; type: functional, cell-based
[2] = test system: SK-N-SH; assay: Neurotoxicity against human SK-N-SH cells assessed as cell viability at 40 uM after 24 hrs by MTT assay; type: toxicity, cell-based
[3] = test system: SK-N-SH; assay: Neurotoxicity against human SK-N-SH cells assessed as cell viability at 80 uM after 24 hrs by MTT assay; type: toxicity, cell-based
[4] = test system: SK-N-SH; assay: Neurotoxicity against human SK-N-SH cells assessed as cell viability at 120 uM after 24 hrs by MTT assay; type: toxicity, cell-based
[5] = test system: SK-N-SH; assay: Neurotoxicity against human SK-N-SH cells assessed as cell viability at 160 uM after 24 hrs by MTT assay; type: toxicity, cell-based
[6] = test system: SK-N-SH; assay: Neurotoxicity against human SK-N-SH cells assessed as cell viability at 200 uM after 24 hrs by MTT assay; type: toxicity, cell-based
[7] = molecular target: Acetylcholinesterase (Electrophorus electricus) (UniProt O42275); assay: Potency index, ratio of galantamine IC50 to compound IC50 for electric eel AChE
Chain of Acetylcholinesterase (Electrophorus electricus) (O42275 24-633 limits assumed): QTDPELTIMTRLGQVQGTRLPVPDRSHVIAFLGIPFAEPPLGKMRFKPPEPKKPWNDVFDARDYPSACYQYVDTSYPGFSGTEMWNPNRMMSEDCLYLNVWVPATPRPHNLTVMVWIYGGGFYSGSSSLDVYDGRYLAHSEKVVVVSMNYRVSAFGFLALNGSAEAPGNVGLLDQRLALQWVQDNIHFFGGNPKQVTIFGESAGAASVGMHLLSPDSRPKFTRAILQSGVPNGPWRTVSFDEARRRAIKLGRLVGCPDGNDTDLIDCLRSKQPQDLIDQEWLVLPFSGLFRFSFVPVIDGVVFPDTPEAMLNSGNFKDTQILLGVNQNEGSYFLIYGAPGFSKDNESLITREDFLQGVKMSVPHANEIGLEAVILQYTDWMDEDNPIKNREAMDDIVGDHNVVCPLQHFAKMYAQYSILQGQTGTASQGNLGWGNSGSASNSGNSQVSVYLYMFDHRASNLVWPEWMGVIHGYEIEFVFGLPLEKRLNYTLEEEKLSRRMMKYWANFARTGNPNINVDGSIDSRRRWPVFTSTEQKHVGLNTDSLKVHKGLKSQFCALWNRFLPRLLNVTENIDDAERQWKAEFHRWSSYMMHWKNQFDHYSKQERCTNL

[8] = Potency index, ratio of trolox IC50 to compound IC50 for ABTS radical scavenging activity
[9] = molecular target: T1, Acetylcholinesterase (Electrophorus electricus, UniProt O42275)
T1 sequence (O42275 whole entry): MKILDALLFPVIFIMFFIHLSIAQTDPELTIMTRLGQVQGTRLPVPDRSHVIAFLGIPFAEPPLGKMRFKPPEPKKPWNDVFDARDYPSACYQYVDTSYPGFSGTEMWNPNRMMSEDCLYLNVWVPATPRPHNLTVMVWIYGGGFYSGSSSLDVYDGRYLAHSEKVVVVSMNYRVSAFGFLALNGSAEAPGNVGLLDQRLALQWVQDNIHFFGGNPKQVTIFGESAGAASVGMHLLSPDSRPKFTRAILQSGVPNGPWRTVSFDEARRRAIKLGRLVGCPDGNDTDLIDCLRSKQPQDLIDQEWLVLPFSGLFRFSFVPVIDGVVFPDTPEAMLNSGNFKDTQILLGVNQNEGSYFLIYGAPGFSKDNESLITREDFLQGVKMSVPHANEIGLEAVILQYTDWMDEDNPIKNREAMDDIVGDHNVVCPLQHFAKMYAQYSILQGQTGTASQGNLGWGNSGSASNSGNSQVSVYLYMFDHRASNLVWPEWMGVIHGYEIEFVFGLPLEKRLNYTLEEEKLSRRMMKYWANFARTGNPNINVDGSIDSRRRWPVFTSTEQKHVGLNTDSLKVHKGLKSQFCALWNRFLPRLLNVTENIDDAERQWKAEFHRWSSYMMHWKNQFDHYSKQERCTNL
Description: Inhibition of electric eel AChE using acetylthiocholine iodide as substrate preincubated for 5 mins followed by substrate addition measured after 5 mins by Ellman's method

[10] = molecular target: Cholinesterase (Equus caballus, UniProt P81908)
Chain of Cholinesterase (P81908 whole entry): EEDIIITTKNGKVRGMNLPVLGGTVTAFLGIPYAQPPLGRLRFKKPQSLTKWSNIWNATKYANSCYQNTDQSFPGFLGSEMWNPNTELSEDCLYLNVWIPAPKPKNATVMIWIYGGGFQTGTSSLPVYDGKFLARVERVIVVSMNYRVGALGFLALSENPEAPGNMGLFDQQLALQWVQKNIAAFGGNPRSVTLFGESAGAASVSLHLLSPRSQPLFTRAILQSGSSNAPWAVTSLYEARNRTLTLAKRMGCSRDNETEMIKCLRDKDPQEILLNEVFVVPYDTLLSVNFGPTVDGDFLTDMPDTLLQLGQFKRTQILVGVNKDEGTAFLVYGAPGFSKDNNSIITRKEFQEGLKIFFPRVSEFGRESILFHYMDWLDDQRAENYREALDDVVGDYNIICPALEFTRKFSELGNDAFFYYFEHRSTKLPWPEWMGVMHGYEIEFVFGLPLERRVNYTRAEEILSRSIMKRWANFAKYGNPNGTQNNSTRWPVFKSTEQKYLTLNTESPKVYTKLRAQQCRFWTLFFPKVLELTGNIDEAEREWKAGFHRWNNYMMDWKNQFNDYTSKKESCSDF
Description: Inhibition of horse serum butyrylcholinesterase using butyrylthiocholine iodide as substrate preincubated for 5 mins followed by substrate addition measured after 5 mins by Ellman's method

[11] = molecular target: T1, Acetylcholinesterase; assay: Mixed-type inhibition of electric eel AChE using acetylthiocholine iodide as substrate assessed as enzyme-substrate complex preincubated for 5 mins followed by substrate addition measured over 6 mins by Lineweaver Burk plot analysis
[12] = molecular target: T1, Acetylcholinesterase; assay: Mixed-type inhibition of electric eel AChE using acetylthiocholine iodide as substrate assessed as free enzyme preincubated for 5 mins followed by substrate addition measured over 6 mins by Lineweaver Burk plot analysis
[13] = test system: Mus musculus; assay: In vivo inhibition of AChE in ip dosed BALB/c ByJ mouse brain assessed as hydrolysis of acetylthiocholine iodide after 48 hrs by Ellman's method; type: functional, organism-based

SMILES	IC50	Activity [1]	Activity [2]	Activity [3]	Activity [4]	Activity [5]	Activity [6]	Ratio IC50 [7]	Ratio IC50 [8]	IC50 [9]	IC50 [10]	Ki [11]	Ki [12]	inhibition [13]
Cc1c(C)c2c(c(C)c1O)CCC(C)(C(=O)O)O2 (stereo unspecified) [TROLOX]	27.4 µM													
Cc1cc(=O)oc2c1ccc1oc(=N)c(C(=O)NCc3ccc(C(C)(C)C)cc3)cc12	13.4 µM	Dose-dependent effect	Toxic	Toxic	Toxic	Toxic	Toxic	2	1.7	10 nM	57.9 µM			
CNC(=O)c1cc2c(ccc3c(C)cc(=O)oc32)oc1=N	34.2 µM									1400 nM	> 100 µM			
COc1ccccc1OCCNC(=O)c1cc2c(ccc3c(C)cc(=O)oc32)oc1=N	13 µM									2600 nM	24.8 µM			
COc1ccc(CNC(=O)c2cc3c(ccc4c(C)cc(=O)oc43)oc2=N)c(OC)c1	> 50 µM							2		357 nM	> 100 µM			
Cc1cc(=O)oc2c1ccc1oc(=N)c(C(=O)NC3CC3)cc12	> 50 µM									910 nM	38.9 µM			
Cc1cc(=O)oc2c1ccc1oc(=N)c(C(=O)N3CCCC3)cc12	> 50 µM							2		984 nM	73.1 µM			
CCCCCCCCCCCCNC(=O)c1cc2c(ccc3c(C)cc(=O)oc32)oc1=N	> 50 µM							2		22 nM	> 100 µM			
Cc1cc(=O)oc2c1ccc1oc(=N)c(C(=O)NCc3ccccc3Cl)cc12	16 µM	Dose-dependent effect	Non-toxic	Non-toxic	Non-toxic	Non-toxic	Non-toxic	2	1.7	12 nM	> 100 µM			
Cc1cc(=O)oc2c1ccc1oc(=N)c(C(=O)NCc3cccc(Br)c3)cc12	7.98 µM	Dose-dependent effect	Toxic	Toxic	Toxic	Toxic	Toxic	2	1.7	3 nM	> 100 µM	19.3 nM	10.3 nM	Active
Cc1cc(=O)oc2c1ccc1oc(=N)c(C(=O)NCc3cccc(Cl)c3)cc12	10.3 µM	Dose-dependent effect	Non-toxic	Non-toxic	Non-toxic	Non-toxic	Non-toxic	2	1.7	19 nM	> 100 µM			
Cc1cc(=O)oc2c1ccc1oc(=N)c(C(=O)NCc3ccccc3Br)cc12	11.9 µM	Dose-dependent effect	Non-toxic	Non-toxic	Non-toxic	Non-toxic	Non-toxic	2	1.7	16 nM	> 100 µM			
COc1ccc(C(C)NC(=O)c2cc3c(ccc4c(C)cc(=O)oc43)oc2=N)cc1 (stereo unspecified)	9.04 µM								1.7	1900 nM				
Cc1cc(=O)oc2c1ccc1oc(=N)c(C(=O)NC(c3ccccc3)c3ccccc3)cc12	> 50 µM							2		90 nM				
Cc1cc(=O)oc2c1ccc1oc(=N)c(C(=O)Nc3ccccc3[N+](=O)[O-])cc12	> 50 µM							2		226 nM	> 100 µM			
Cc1cc(=O)oc2c1ccc1oc(=N)c(C(=O)NC(C)c3ccccc3)cc12 (stereo unspecified)	14.1 µM							2	1.7	247 nM	35.8 µM			
Cc1cc(=O)oc2c1ccc1oc(=N)c(C(=O)NC3CCCCC3)cc12	> 50 µM							2		27 nM	42 µM			
Cc1cc(=O)oc2c1ccc1oc(=N)c(C(=O)NCc3ccccc3)cc12	> 50 µM							2		2130 nM	> 100 µM			
Cc1cc(=O)oc2c1ccc1oc(=N)c(C(=O)N3CCOCC3)cc12	11.3 µM							2	1.7	115 nM				
CCNC(=O)c1cc2c(ccc3c(C)cc(=O)oc32)oc1=N	> 50 µM							2		294 nM	11.3 µM			
